Measured values published in US9499493B2, “2,4-pyrimidinediamine compounds and their uses” (Rigel Pharmaceuticals, Inc., priority 2002, dated 2016).
pIC50: −log10 of the molar value.

Tests used:
Jurkat cells = assay: Jurkat (T-cell) toxicity, light scatter; format: cell-based; details: 18-24 hr incubation; read-out: Toxicity Jurkat Light Scat.
Method: Dilute Jurkat cells to 2×10^5 cells/ml in complete RPMI (10% heat-inactivated fetal bovine serum) media and incubate at 37° C., 5% CO2 for 18 hours. Add 65 ul cells at 7.7×10^5 cells/ml to a 96-well V-bottom plate (TC-treated, Costar) containing 65 ul 2× compound (final vehicle concentration is 0.5% DMSO, 1.5% MeOH). Mix, incubate plates for 18-24 hr at 37° C., 5% CO2. Toxicity was assessed by flow cytometric analysis of cellular light scatter

[1] = test system: cultured human mast cells (CHMC); assay: CHMC low cell density ionomycin activation: tryptase assay; format: cell-based
B-cell line BJAB = assay: BJAB (B-cell) toxicity, light scatter; format: cell-based; details: read-out: Toxicity BJAB Light Scat.
Method: The B-cell line BJAB was cultured in log phase in RPMI1640+10% heat-inactivated fetal bovine serum, 1× L-glutamine, 1× penicillin, 1× […] and 1× beta-mercaptoethanol at 37° C., 5% CO2. First, BJABs were harvested, spun and resuspended in culture medium to a concentration of 7.7×10^5 cells/mL. 65 uL cells were mixed with 65 uL compound, in duplicate and in the presence of 0.1% DMSO in a V-bottomed 96-well tissue culture plate. Cells were incubated with compound at various dilutions at 37° C., 5% CO2. Toxicity was assessed by flow cytometric analysis of cellular light scatter.

[2] = test system: cultured human mast cells (CHMC); assay: CHMC low cell density IgE activation: tryptase assay; format: cell-based; details: anti-IgE
How it was run: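 Cultured human mast cells (1000-1500 cells/well, donor-dependent) equilibrated 1 hr at 37° C, then stimulated with anti-IgE for 30 min at 37° C. Tryptase released into the supernatant is measured with a fluorogenic tryptase substrate after 30 min at room temperature.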

[3] = test system: cultured human mast cells (CHMC); assay: CHMC low cell density IgE activation: LTC4 assay; format: cell-based; details: anti-IgE
Method: Pellet CHMC cells (980 rpm, 10 min) and resuspend in pre-warmed MT. Add 65 ul of cells to each 96-well plate. Depending on the degranulation activity for each particular CHMC donor, load 1000-1500 cells/well. Mix four times followed by a 1 hr incubation at 37° C. […] Stimulate cells by adding 25 ul of 6× anti-IgE solution to the appropriate plates. Add 25 ul MT to un-stimulated control wells. Mix twice following addition of the anti-IgE. Incubate at 37° C. for 30 minutes. […] Spin plates at 1000 rpm for 10 min to pellet cells. Transfer 25 ul of supernatant to a 96-well black bottom plate and add 100 ul of freshly diluted tryptase substrate solution to each well. Incubate plates at room temperature for 30 min.
Leukotriene C4 (LTC4) is also quantified using an ELISA kit on appropriately diluted supernatant samples (determined empirically for each donor cell population so that the sample measurement falls within the standard curve) following the supplier's instructions.

[4] = test system: cultured human mast cells (CHMC); assay: CHMC high cell density IgE activation: TNFalpha; format: cell-based; details: anti-IgE activation; read-out: CHMC high density TNF-alpha
Method: (§1) Inhibition of degranulation was measured at both low and high cell density by quantifying the release of the granule specific factors tryptase, histamine and hexosaminidase. Inhibition of release and/or synthesis of lipid mediators was assessed by measuring the release of leukotriene LTC4 and inhibition of release and/or synthesis of cytokines was monitored by quantifying TNF-α, IL-6 and IL-13. Tryptase and hexosaminidase were quantified using fluorogenic substrates as described in their respective examples. […] The protocols of the various assays are provided below.
(§2) After sensitizing, cells are counted, pelleted (1000 rpm, 5-10 minutes), and resuspended at 1-2×10^6 cells/ml in MT buffer. Add 100 ul of cell suspension to each well and 100 ul of compound dilutions. The final vehicle concentration is 0.5% DMSO. Incubate at 37° C. (5% CO2) for 1 hour. After 1 hour of compound treatment, stimulate cells with 6× anti-IgE. Mix wells with the cells and allow plates to incubate at 37° C. (5% CO2) for one hour. After 1 hour incubation, pellet cells (10 minutes, 1000 RPM) and collect 200 ul per well of the supernatant, being careful not to disturb pellet. Place the supernatant plate on ice. During the 7-hour step (see next) perform tryptase assay on supernatant that had been diluted 1:500. Resuspend cell pellet in 240 ul of CM media containing 0.5% DMSO and corresponding concentration of compound. Incubate CHMC cells for 7 hours at 37° C. (5% CO2). After incubation, pellet cells (1000 RPM, 10 minutes) and collect 225 ul per well and place in −80° C. until ready to perform ELISAS. ELISAS are performed on appropriately diluted samples (determined empirically for each donor cell population so that the sample measurement falls within the standard curve) following the supplier's instructions.

[5] = test system: cultured human mast cells (CHMC); assay: CHMC high cell density IgE activation: histamine; format: cell-based; details: anti-IgE activation
Method: as §1, §2

[6] = test system: cultured human mast cells (CHMC); assay: CHMC high cell density IgE activation: IL-13; format: cell-based; details: anti-IgE activation
Method: as §1, §2

[7] = test system: cultured human mast cells (CHMC); assay: CHMC high cell density IgE activation: tryptase; format: cell-based; details: anti-IgE activation
Method: as §2

[8] = test system: cultured human mast cells (CHMC); assay: CHMC high cell density IgE activation: LTC4; format: cell-based; details: anti-IgE activation
Method: as §1, §2

[9] = test system: cultured human mast cells (CHMC); assay: CHMC high cell density IgE activation: hexos (hexosaminidase) release; format: cell-based; details: anti-IgE activation
Method: as §1, §2

[10] = Pharmacokinetics / oral bioavailability in rats; format: in vivo; details: rats
Method: Over 50 2,4-pyrimidinediamine compounds of the invention were tested for oral bioavailability. For the study, compounds were dissolved in various vehicles (e.g. PEG 400 solution and CMC suspension) for intravenous and oral dosing in the rats. Following administration of the drug, plasma samples were obtained and extracted. The plasma concentrations of the compounds were determined by high performance liquid chromatography/tandem mass spectrometry (LC/MS/MS) methods. Pharmacokinetic analyses were performed based on the plasma concentration data. The pharmacokinetic parameters of interest include Clearance (CL), Volume of distribution at steady-state (Vss), terminal half-life (t1/2), and oral bioavailability (% F).

| pIC50 [1] | pIC50 [2] | pIC50 [3] | pIC50 [4] | pIC50 [5] | pIC50 [6] | pIC50 [7] | pIC50 [8] | pIC50 [9] | Compound | pIC50 (Jurkat cells) | pIC50 (B-cell line BJAB) | oral bioavailabilities and half-lives (in words) [10] |
| --- | --- | --- | --- | --- | --- | --- | --- | --- | --- | --- | --- | --- |
| < 5.00 | – | – | – | – | – | – | – | – | CCOC(=O)COc1ccc(Nc2ncc(C#N)c(Nc3ccc(OCC(=O)OCC)cc3)n2)cc1 [R925775, N2,N4-Bis[4-(ethoxycarbonylmethyleneoxy)phenyl]-5-cyano-2,4-pyrimidinediamine] | < 5.00 | < 5.00 | – |
| < 5.00 | 6.58 | 6.72 | – | – | – | – | – | – | CCOC(=O)COc1ccc(Nc2ncc(Br)c(Nc3ccc(OCC(=O)OCC)cc3)n2)cc1 [R925779, N2,N4-Bis[4-(ethoxycarbonylmethyleneoxy)phenyl]-5-bromo-2,4-pyrimidinediamine] | < 5.00 | < 5.00 | – |
| 5.77 | 6.42 | 6.84 | – | – | – | – | – | – | COC(=O)COc1ccc(Nc2ncc(F)c(Nc3ccc(OCC(=O)OC)cc3)n2)cc1 [R926240, N2,N4-Bis[(4-methoxycarbonylmethyleneoxy)phenyl]-5-fluoro-2,4-pyrimidinediamine] | 5.00 | < 5.00 | – |
| – | 6.10 | 6.17 | – | – | – | – | – | – | CCOC(=O)c1cnc(Nc2ccc(OCC(=O)OC)cc2)nc1Nc1ccc(OCC(=O)OC)cc1 [R926253, N2,N4-Bis(4-methoxycarbonylmethyleneoxyphenyl)-5-ethoxycarbonyl-2,4-pyrimidinediamine] | < 5.00 | < 5.00 | – |
| 5.29 | 6.56 | 6.64 | – | – | – | – | – | – | COC(=O)COc1ccc(Nc2ccnc(Nc3ccc(OCC(=O)OC)cc3)n2)cc1 [R926256, N2,N4-Bis[(4-methoxycarbonylmethyleneoxy)phenyl]-2,4-pyrimidinediamine] | < 5.00 | < 5.00 | – |
| < 5.00 | 6.05 | 6.23 | – | – | – | – | – | – | COC(=O)COc1ccc(Nc2ncc(C)c(Nc3ccc(OCC(=O)OC)cc3)n2)cc1 [R926258, N2,N4-Bis(4-methoxycarbonylmethyleneoxyphenyl)-5-methyl-2,4-pyrimidinediamine] | < 5.00 | < 5.00 | – |
| 5.19 | 6.06 | 6.54 | – | – | – | – | – | – | CCOC(=O)COc1ccc(Nc2ncc(F)c(Nc3cccc(O)c3)n2)cc1 [R926395, N2-(4-Ethoxycarbonylmethyleneoxyphenyl)-5-fluoro-N4-(3-hydroxyphenyl)-2,4-pyrimidinediamine] | < 5.00 | < 5.00 | – |
| 5.59 | 6.15 | 6.80 | – | – | – | – | – | – | CCOC(=O)COc1ccc(Nc2ncc(Br)c(Nc3cccc(O)c3)n2)cc1 [R926396, 5-Bromo-N2-(4-ethoxycarbonylmethyleneoxyphenyl)-N4-(3-hydroxyphenyl)-2,4-pyrimidinediamine] | < 5.00 | < 5.00 | – |
| 5.60 | 6.16 | – | – | – | – | – | – | – | COC(=O)COc1ccc(Nc2cc(Cl)nc(Nc3ccc(OCC(=O)OC)cc3)n2)cc1 [R926411, N2,N4-Bis(4-methoxycarbonylmethyleneoxyphenyl)-6-chloro-2,4-pyrimidinediamine] | 5.07 | < 5.00 | – |
| < 5.00 | 6.48 | 6.12 | 5.61 | 6.10 | 5.99 | 6.21 | 6.70 | 6.28 | O=C(c1cc2cc(Nc3ncc(F)c(Nc4cccc(O)c4)n3)ccc2o1)N1CCOCC1 [R926488, 5-Fluoro-N4-(3-hydroxyphenyl)-N2-[2-(N-morpholino)carbonylbenzofuran-5-yl]-2,4-pyrimidinediamine] | – | – | – |
| < 5.00 | 6.12 | – | > 5.96 | 5.84 | 5.89 | > 5.96 | > 5.96 | > 5.96 | Oc1cccc(Nc2nc(Nc3ccc(OCCN4CCOCC4)cc3)ncc2F)c1 [R926699, 5-Fluoro-N4-(3-hydroxyphenyl)-N2-[4-[2-(N-morpholino)ethyleneoxy]phenyl]-2,4-pyrimidinediamine] | – | – | – |
| – | – | – | – | – | – | – | – | – | OCCCn1ncc2cc(Nc3ncc(F)c(Nc4ccc(Cl)c(Cl)c4)n3)ccc21 [R935391] | – | – | good |
| < 5.00 | 6.43 | – | 5.97 | 6.36 | 6.54 | 6.34 | 7.03 | 6.45 | N#CCOc1ccc(Nc2ncc(F)c(Nc3ccc(OCC#N)cc3)n2)cc1 [R945032, N2,N4-Bis[4-(cyanomethyleneoxy)phenyl]-5-fluoro-2,4-pyrimidinediamine] | – | – | – |
| – | – | – | > 5.96 | > 5.96 | > 5.96 | > 5.96 | > 5.96 | > 5.96 | N#CCOc1ccc(Nc2nc(Nc3cccc(O)c3)ncc2F)cc1 [R945071, N4-[4-(Cyanomethyleneoxy)phenyl]-5-fluoro-N2-(3-hydroxyphenyl)-2,4-pyrimidinediamine] | – | – | – |
| < 5.00 | 6.24 | – | 5.77 | 5.81 | < 5.00 | 5.95 | – | 6.00 | Cc1cc(Nc2nc(Nc3cccc(OCC(=O)N4CCNCC4)c3)ncc2F)cc(C)c1O [R945140, N4-(3,5-Dimethyl-4-hydroxyphenyl)-5-fluoro-N2-[3-(N-piperazino)carbonylmethyleneoxyphenyl]-2,4-pyrimidinediamine] | – | – | – |
